Experimental data as given in ChEMBL document CHEMBL3797029, “Purinylpyridinylamino-based DFG-in/αC-helix-out B-Raf inhibitors: Applying mutant versus wild-type B-Raf selectivity indices for compound profiling” (Bioorg Med Chem, 2016).

How the values were obtained:
Design in all cases: scale not given: the % may be the effect or the level left
[1] = molecular target: Cyclin-dependent kinase 4/cyclin D1 (Homo sapiens) (UniProt P11802+P24385); assay: Inhibition of full length wild type human CDK4-cyclinD1 expressed in mammalian system assessed as enzyme activity at 1 uM relative to control
[2] = molecular target: Tyrosine-protein kinase ABL1 (Homo sapiens) (UniProt P00519); assay: Inhibition of partial length wild type phosphorylated human ABL1 expressed in mammalian system assessed as enzyme activity at 1 uM relative to control
Tyrosine-protein kinase ABL1 (Homo sapiens), sequence (P00519 whole entry, canonical isoform): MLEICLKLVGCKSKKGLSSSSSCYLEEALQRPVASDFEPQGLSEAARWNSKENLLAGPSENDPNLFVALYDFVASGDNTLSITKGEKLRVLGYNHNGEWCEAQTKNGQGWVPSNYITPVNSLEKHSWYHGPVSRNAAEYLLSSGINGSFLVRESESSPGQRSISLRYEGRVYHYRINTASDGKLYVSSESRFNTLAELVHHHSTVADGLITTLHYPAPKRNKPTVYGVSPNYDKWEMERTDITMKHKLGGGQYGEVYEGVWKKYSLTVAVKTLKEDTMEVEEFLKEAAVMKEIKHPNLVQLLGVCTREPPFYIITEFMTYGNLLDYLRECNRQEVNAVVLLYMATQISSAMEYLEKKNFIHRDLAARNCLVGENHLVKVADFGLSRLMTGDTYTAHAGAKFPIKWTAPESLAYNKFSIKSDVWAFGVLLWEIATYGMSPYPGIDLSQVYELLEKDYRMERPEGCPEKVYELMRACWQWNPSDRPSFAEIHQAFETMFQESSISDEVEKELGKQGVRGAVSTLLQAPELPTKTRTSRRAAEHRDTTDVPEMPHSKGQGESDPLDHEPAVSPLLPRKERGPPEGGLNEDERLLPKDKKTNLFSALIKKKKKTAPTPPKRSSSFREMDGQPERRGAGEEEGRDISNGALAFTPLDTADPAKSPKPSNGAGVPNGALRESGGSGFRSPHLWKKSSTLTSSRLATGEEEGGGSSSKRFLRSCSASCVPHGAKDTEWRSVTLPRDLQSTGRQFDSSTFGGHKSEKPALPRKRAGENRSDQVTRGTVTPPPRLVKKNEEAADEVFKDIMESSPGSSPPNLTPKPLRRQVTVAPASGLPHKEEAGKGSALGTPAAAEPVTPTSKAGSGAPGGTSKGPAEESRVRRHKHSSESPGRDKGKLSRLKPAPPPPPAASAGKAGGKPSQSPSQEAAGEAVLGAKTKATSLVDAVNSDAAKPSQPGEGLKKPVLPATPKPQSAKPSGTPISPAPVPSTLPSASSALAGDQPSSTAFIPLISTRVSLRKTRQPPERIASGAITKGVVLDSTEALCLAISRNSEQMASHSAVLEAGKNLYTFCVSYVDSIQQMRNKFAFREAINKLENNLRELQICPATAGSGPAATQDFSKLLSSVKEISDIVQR

[3] = molecular target: Casein kinase I isoform delta (Homo sapiens) (UniProt P48730); assay: Inhibition of full length wild type human CSNK1D expressed in bacterial system assessed as enzyme activity at 1 uM relative to control
Casein kinase I isoform delta (Homo sapiens), sequence (P48730 whole entry, looked up, canonical isoform): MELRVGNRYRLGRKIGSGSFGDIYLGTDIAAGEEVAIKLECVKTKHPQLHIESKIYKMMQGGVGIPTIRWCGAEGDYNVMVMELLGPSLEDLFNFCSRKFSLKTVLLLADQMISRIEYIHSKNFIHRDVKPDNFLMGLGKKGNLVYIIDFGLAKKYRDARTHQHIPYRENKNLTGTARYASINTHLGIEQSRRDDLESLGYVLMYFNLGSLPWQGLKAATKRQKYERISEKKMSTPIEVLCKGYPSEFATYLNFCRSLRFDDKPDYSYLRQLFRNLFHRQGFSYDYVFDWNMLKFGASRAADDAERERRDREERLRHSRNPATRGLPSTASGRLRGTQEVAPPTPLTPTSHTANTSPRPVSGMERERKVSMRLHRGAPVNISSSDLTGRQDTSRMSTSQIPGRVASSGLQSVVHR

[4] = molecular target: Death-associated protein kinase 1 (Homo sapiens) (UniProt P53355); assay: Inhibition of partial length wild type human DAPK1 expressed in bacterial system assessed as enzyme activity at 1 uM relative to control
Death-associated protein kinase 1 (Homo sapiens), sequence (P53355 whole entry, looked up): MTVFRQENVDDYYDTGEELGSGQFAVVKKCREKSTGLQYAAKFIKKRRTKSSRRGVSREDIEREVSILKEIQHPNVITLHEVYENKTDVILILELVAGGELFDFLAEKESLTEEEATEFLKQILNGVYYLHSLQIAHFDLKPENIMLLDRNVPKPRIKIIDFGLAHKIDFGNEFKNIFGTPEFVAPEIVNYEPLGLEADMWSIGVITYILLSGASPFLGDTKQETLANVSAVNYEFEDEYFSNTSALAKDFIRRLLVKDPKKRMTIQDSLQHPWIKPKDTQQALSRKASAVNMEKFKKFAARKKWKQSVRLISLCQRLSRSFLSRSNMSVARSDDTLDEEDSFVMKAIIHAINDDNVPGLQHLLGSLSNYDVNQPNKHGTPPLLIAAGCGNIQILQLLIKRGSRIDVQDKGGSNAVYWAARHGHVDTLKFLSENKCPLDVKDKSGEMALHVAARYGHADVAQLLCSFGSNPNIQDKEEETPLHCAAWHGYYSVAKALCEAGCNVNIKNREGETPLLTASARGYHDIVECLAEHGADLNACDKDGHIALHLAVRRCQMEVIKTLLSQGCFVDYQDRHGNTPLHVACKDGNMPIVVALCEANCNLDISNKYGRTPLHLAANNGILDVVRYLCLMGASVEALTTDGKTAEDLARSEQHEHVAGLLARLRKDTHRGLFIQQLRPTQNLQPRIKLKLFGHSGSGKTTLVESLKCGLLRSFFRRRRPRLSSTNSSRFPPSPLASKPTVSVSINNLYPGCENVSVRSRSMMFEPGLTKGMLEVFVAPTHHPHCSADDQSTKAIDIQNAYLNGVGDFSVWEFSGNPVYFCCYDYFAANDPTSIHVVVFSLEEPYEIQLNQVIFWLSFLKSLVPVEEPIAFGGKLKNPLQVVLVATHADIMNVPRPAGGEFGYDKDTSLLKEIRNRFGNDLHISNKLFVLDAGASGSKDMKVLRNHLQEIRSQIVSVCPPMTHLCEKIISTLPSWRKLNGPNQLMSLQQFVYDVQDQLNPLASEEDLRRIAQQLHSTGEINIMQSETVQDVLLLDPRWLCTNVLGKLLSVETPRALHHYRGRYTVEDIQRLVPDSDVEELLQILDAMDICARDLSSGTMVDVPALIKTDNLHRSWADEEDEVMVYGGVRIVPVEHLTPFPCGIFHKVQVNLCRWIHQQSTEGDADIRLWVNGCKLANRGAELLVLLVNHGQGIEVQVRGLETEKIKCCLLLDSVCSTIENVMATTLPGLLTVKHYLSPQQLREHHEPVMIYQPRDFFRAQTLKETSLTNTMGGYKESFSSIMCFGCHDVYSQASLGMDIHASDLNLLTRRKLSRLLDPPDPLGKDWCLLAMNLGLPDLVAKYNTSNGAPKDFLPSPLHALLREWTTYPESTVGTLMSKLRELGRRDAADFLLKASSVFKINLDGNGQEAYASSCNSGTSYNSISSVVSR

[5] = molecular target: Dual specificity mitogen-activated protein kinase kinase 3 (Homo sapiens) (UniProt P46734); assay: Inhibition of full length wild type human MEK3 expressed in mammalian system assessed as enzyme activity at 1 uM relative to control
Dual specificity mitogen-activated protein kinase kinase 3 (Homo sapiens), sequence (P46734 whole entry): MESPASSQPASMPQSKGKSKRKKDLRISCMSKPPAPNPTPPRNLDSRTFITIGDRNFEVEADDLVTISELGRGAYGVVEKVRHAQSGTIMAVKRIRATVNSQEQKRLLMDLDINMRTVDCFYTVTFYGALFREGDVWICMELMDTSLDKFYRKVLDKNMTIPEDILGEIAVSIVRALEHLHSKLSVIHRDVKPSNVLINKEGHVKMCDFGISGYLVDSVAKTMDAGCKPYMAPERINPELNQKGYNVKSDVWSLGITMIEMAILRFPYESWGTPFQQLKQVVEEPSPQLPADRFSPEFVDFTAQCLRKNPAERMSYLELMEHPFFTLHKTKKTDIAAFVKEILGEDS

[6] = molecular target: Dual specificity protein kinase CLK2 (Homo sapiens) (UniProt P49760); assay: Inhibition of partial length wild type human CLK2 expressed in bacterial system assessed as enzyme activity at 1 uM relative to control
Dual specificity protein kinase CLK2 (Homo sapiens), sequence (P49760 whole entry, looked up): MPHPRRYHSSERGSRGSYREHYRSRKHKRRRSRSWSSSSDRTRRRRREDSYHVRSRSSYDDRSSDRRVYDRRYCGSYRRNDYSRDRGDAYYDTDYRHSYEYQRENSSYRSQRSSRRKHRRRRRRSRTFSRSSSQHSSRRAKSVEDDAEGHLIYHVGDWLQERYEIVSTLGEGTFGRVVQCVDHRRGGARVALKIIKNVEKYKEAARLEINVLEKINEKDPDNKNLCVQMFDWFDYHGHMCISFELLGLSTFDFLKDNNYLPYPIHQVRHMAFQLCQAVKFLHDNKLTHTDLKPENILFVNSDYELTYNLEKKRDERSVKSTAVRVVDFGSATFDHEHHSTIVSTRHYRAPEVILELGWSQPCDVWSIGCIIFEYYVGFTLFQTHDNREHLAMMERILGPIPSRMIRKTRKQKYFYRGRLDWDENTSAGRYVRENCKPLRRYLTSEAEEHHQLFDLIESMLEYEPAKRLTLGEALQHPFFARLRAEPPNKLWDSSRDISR

[7] = molecular target: Receptor-type tyrosine-protein kinase FLT3 (Homo sapiens) (UniProt P36888); assay: Inhibition of partial length wild type human FLT3 expressed in bacterial system assessed as enzyme activity at 1 uM relative to control
Receptor-type tyrosine-protein kinase FLT3 (Homo sapiens), sequence (P36888 whole entry): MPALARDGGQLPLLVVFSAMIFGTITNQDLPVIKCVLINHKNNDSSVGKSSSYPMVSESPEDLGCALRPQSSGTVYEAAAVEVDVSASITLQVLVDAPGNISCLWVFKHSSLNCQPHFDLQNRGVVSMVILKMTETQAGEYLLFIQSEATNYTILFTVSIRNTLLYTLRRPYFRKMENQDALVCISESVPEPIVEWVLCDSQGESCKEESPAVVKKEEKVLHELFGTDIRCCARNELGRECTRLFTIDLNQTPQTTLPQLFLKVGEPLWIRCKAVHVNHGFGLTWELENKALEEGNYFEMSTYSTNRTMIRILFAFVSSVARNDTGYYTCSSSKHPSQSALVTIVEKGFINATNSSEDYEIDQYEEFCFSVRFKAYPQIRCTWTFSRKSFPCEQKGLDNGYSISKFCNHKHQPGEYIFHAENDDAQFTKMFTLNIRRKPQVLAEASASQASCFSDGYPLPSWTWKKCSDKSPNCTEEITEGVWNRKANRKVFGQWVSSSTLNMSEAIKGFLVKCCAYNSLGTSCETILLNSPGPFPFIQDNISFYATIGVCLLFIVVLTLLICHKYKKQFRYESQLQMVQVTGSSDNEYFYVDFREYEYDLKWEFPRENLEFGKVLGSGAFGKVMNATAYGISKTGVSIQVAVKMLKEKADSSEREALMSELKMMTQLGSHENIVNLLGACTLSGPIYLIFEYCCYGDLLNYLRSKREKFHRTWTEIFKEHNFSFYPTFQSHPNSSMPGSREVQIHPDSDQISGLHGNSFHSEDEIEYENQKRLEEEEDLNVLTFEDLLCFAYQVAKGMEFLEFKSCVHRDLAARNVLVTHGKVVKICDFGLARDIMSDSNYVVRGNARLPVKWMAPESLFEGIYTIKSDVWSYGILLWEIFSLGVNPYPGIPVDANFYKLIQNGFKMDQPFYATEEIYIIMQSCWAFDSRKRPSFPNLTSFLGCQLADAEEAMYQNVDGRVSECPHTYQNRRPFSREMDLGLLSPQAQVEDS

[8] = system: RIPK2 (Receptor-interacting serine/threonine-protein kinase 2); assay: Inhibition of partial length wild type human RIPK2 expressed in bacterial system assessed as enzyme activity at 1 uM relative to control

Activity [1]: 98%
Activity [2]: 100%
Activity [3]: 83%
Activity [5]: 100%
Activity [6]: 79%
Activity [7]: 71%
Activity [8]: 40%
SMILES: CN(C)S(=O)(=O)Nc1ccc(F)c(Nc2ncccc2-c2ncnc3[nH]cnc23)c1F
Activity [4]: 100%
